Laboratory results from PubChem BioAssay (NCI).
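Five concentrations, 48 hours, 96-well plates. Here, GI50 denotes the concentration required for 50% inhibition of growth. TGI marks complete inhibition of growth.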

How the values were obtained:
Assay in all cases: DTP human tumour cell line panel, 48 h
[1] = system: OVCAR-5 ovarian
[2] = system: OVCAR-8 ovarian
[3] = system: SN12C renal
[4] = system: SW-620 colon
[5] = system: NCI-H23 lung
[6] = system: SK-MEL-28 melanoma
[7] = system: UO-31 renal
[8] = system: HOP-92 NSCLC
[9] = system: U251 CNS

SMILES	GI50 [1] [µM]	TGI [1] [µM]	GI50 [2] [µM]	TGI [2] [µM]	GI50 [3] [µM]	TGI [3] [µM]	GI50 [4] [µM]	TGI [4] [µM]	GI50 [5] [µM]	TGI [5] [µM]	GI50 [6] [µM]	TGI [6] [µM]	GI50 [7] [µM]	TGI [7] [µM]	GI50 [8] [µM]	TGI [8] [µM]	GI50 [9] [µM]	TGI [9] [µM]
Cc1c(C)c2ccc(OC/C=C3\CCC(=O)O3)cc2oc1=O	16.5	31.1	16.5	34.8	18.2	43	18	40	15.4	29.6	14.3	28.1	10.6	22.4	15	31.2	15.7	29.3
Fc1ccc(Nc2nc(NCCNc3ccnc4cc(Cl)ccc34)nc(N3CCOCC3)n2)cc1	17.6	32.1	11.6	40.6	11.6	25	4.21	16.4	14.6	30.2	1.83	3.25	3.52	16.5	1.03	6.88	4.72	17.5
O=C(O)CCC1CCc2cccc3occ1c23 (stereo not drawn)		> 100		> 100		> 100		> 100		> 100		> 100		> 100		> 100		> 100
O=c1[nH]cnc2c(C3OC(CO)C(O)C3O)scc12 (stereo not drawn)	> 100	> 100	54.8	> 100	> 100	> 100	99.9	> 100	> 100	> 100	> 100	> 100	51.4	> 100	5.03	> 100	> 100	> 100
COc1cc2cc(Oc3ccc(NC(=O)c4ccc(Cl)c(C(F)(F)F)c4)cc3)c(C)nc2cc1OC	55.9	> 100	22.9	> 100	13.2	> 100	33.7	> 100	9.73	> 100	30.3	> 100	9.82	> 100	13.6	71.3	8.72	> 100
O=C(NN1C(=O)CSC1c1ccc(Cl)cc1)c1[nH]c2ccc(F)cc2c1-c1ccccc1 (stereo not drawn)	2.64	8.34	4.34	20.6	2.87	7.84	2.98	8.92	2.26	6.59	3.23	10.1	4.07	13.7	2.42	6.6	3.14	8.38
O=C(Nc1ccc2c(c1)oc(=O)c1ccccc12)C(Cl)Cl		> 100		> 100		> 100		> 100		> 100		> 100		> 100		> 100		> 100
COc1ccc(-c2ccc(/C=N/n3c(COc4ccc(Cl)cc4)n[nH]c3=S)o2)c([N+](=O)[O-])c1	24.7	51.4	24.6	> 100	19.9	53.4			13.8	33.7	17.3	> 100	33.5	> 100	15.1	43.8	15.5	49.7
Cc1ncc([N+](=O)[O-])n1CCNC(=O)CCCn1cnc([N+](=O)[O-])n1		> 100		> 100		> 55.9		> 100		> 100		> 100		> 100		> 100		> 100
C/C(=N\NC(N)=O)C(CN(C)C)C(c1ccccc1)c1c(O)c2ccccc2oc1=O (stereo not drawn)		> 100		> 100		> 100		> 100		> 100		> 100		> 100		7.67		> 100
C/C1=C\CC[C@@](C)(O)[C@@H]2CC3[C@@H](OC(=O)C34CC4)[C@@H](O2)[C@H](C)CCC1 (stereo partly drawn)	16.1	30.2	18.8	38.1	20.3	43.5	35.2	> 100			61.7	> 100	15.3	29.9	38.9	> 100	19.9	42.7
CS(=O)(=O)Nc1cc(-c2ccc3ncnc(Nc4ccc5c(cnn5Cc5ccc(F)cc5)c4)c3c2)cnc1Cl	1.53	8.84	3.02	> 100	1.66	19.3	2.5	12.8	1.43	5.43	0.803	7.17					1.41	11.1
Cn1cc(-c2ccc(CNc3cc(-c4cnc5cc(OCCCN6CCCC6)ccn45)ncn3)cc2)cn1	2.04	4.16	1.81	3.61	1.82	3.61	1.61	3.17			1.65	3.17	1.41	2.82	3.89	22.2	1.43	2.77
O=C(Nc1cc(Cl)c(Cl)cc1Cl)C(=O)C(C(=O)c1ccc(Cl)c(Cl)c1)C1OC(=O)c2ccccc21 (stereo not drawn)		23.6		28.5		52.3		38.3						30.6		31.4		30.9
CC(CCCOC(c1ccccc1)(c1ccccc1)c1ccccc1)OC(=O)Nc1cc([N+](=O)[O-])cc([N+](=O)[O-])c1 (stereo not drawn)				> 100		> 100		> 100		58.7		54.4		> 100				83.8
COc1ccc2c(c1)nc(N)c1c3cccnc3cn21	0.438	> 100	0.0898	> 54.5	0.382	> 100	0.0373	14.5	0.345	50			0.0776	17.9			0.0474	14.6
Cc1cn2c(/C=N/N/C(N)=N\N)c(-c3ccc(Cl)c([N+](=O)[O-])c3)nc2s1	1.03	2.1			1.27	4.09			4.18	20			9.45	22.5	2.55	13.3	0.914	1.63
S=c1ssc(Sc2ccccn2)c1Cl	25.6	48.3	20.3	40.8	13.2	25.9			17.2	62.9			6.51	> 100	12.6	26.8	11	22.9
NCc1ccc(-n2c(-c3nonc3N)nc3cnccc32)cc1	11.7	> 25	6.76	> 25	7.61	> 25	7.1	> 25	> 25	> 25	11.4	> 25	0.442	> 25			8.94	> 25
CC(C)=CC(=O)CC(=O)C(=O)Nc1ccc(Cl)c(Cl)c1		> 100		> 100		> 100		> 100		> 100		> 100		> 100				> 100
COc1cnc2c(c1)C(=O)c1c-2n(CCCN2CCCC2)c(=O)c2cc(Cl)ccc12	5.02	11.3	0.813	12.2			0.0313	8.09	0.857	9.16	8.34	16.8	0.599	9.02	2.2	12.1	0.0383	7.96
N#CC1C(N)=NNC12Nc1ccccc1N2 (stereo not drawn)	> 100	> 100	0.2	21.4			26.8	> 100			27.9	> 100	11.5	84.9	2.2	34.5	22.6	> 100
Cc1ccc2c(c1)ncn2-c1ncnc2c1CC(C)c1ccccc1N2C (stereo not drawn)			0.381	22.9	0.444	15.6	0.0435	15.9	0.428	19.4	1.84	15.6	0.317	7.11	3.77	18.7	0.086	13.9
C=C(C)[C@@H]1CC[C@@]2(C)[C@H]1[C@H]1CCC3[C@@]4(C)CC[C@H](O)C(C)(C)[C@@H]4CC[C@@]3(C)[C@]1(C)C[C@@H]2O (stereo partly drawn)		> 100		> 100		> 100		> 100		> 100		> 100				> 100		> 100
CN(C)c1ccc(C(N)=O)cn1		> 100		> 100		> 100		> 100		> 100		> 100		> 100				> 100
